In brackets after ≈: the same amount, converted by molar mass. Counter-ions that a name gives are not always drawn. Like-named read-outs stand apart in the source and are kept apart here.
Legend:
[1] = tested on: Aspergillus fumigatus ATCC 28214; assay: In vitro antifungal MIC, microtiter broth dilution; conditions: for MIC: Aspergillus fumigatus, ATCC28214, 24 h; for MIC values, A. fumigatus: 30°, 24 hours
[2] = tested on: Candida albicans ATCC 11651; assay: In vitro antifungal MIC, microtiter broth dilution; conditions: for MIC: Candida albicans, ATCC11651, 24 h; for MIC values, C. albicans: 30°, 24 hours
[3] = tested on: Candida albicans ATCC 11651; assay: In vivo systemic Candida infection in mice, primary assay; set-up: species or system Candida albicans; CF-1 female mice; conditions: for responders at 150 mg/kg / responders at 1 mg/kg/day: Candida albicans, read-out: % Survival; for responders at 150 mg/kg / % Survival: 150 mg/kg per day
Excerpt: The […] activity of test compounds is based on the percent (%) survival of infected animals receiving test or standard agent compared to that in an infected untreated group (Table 6). The in vivo assays are chronic systemic infections lethal to mice within 7 days post infection, [J. Barnes, et al. Lab Investigation, 49 460-467 (1963), and T. Rogers and E. Balish, Infection and Immunity, 14 33-38 (1976)].
Candida albicans ATCC 11651, from a frozen stock culture (10^9 organisms/ml) maintained at -70°, is diluted in saline to 1×10^7 organisms/ml and 0.2 ml inoculated intravenously (caudal vein) into 20.0 gm CF-1 female mice (Charles River).
Test compounds are routinely solubilized in 0.25% (w/v) methylcellulose (Methocel®) but for those compounds difficult to solubilize 10% (w/v) Emulophor® (EL620 GAF Corp.) is used. The standard antifungal agents, amphotericin B (Fungizone®) in water and ketoconazole (Nizoral®) in Methocel®, are administered at 1.0 mg/kg/day and 150 mg/kg/day, respectively.
In a primary assay, mice (10 per group) are infected with C. albicans, and receive test compounds at 50 or 150 mg/kg/day via the subcutaneous route. Animals are dosed with the test compound at 1 and 6 hour post-infection and then once daily for the next three days. Survival of mice in each group is recorded for 21 days.
Compounds which protect ≥70% of the infected animals for 14 days at a dose 150 mg/kg/day or less are viewed as active.

[4] = read-out: MIC values, A. fumigatus, 30°, 24 hours
[5] = read-out: MIC values, C. albicans, 30°, 24 hours
[6] = read-out: MIC values, A. fumigatus
[7] = read-out: MIC values, C. albicans

MIC [1, 4] [µg/mL]	MIC [2, 5] [µg/mL]	Structure (SMILES)	responders at 150 mg/kg ([3]; ATCC11651, 168 h, day 7) [%]	responders at 150 mg/kg ([3]; ATCC11651, 336 h, day 14) [%]	responders at 150 mg/kg ([3]; ATCC11651, 504 h, day 21) [%]	further results
6.3 (≈ 18.3 µM)	0.4 (≈ 1.17 µM)	OC(Cn1cncn1)(c1ccc(F)cc1)C1(c2ccc(F)cc2)CO1 (single isomer, unassigned) [Example 1487, 2,3-bis(4-fluorophenyl)-1-(1H-1,2,4-triazol-1-yl)-3,4-epoxy-2-butanol]	100	100	70	–
–	–	C=C(c1ccccc1Cl)C(O)(Cn1cncn1)c1ccc(F)cc1F (centres unmarked) [35 salt]	–	–	–	% Survival ([3]; day 7): 100%; % Survival ([3]; day 14): 100%; % Survival ([3]; day 21): 70%
–	–	C=C(c1ccccc1Cl)C(O)(Cn1cncn1)c1ccc(Cl)cc1 (centres unmarked) [34 salt]	–	–	–	% Survival ([3]; day 7): 100%; % Survival ([3]; day 14): 100%; % Survival ([3]; day 21): 100%
–	–	C=C(c1ccc(Cl)cc1)C(O)(Cn1cncn1)c1ccc(Cl)cc1Cl (centres unmarked) [Example 26 HCl salt]	–	–	–	% Survival ([3]; day 7): 100%; % Survival ([3]; day 14, listed as 26 salt): 90%; % Survival ([3]; day 21, listed as 26 salt): 80%
12.5 (≈ 32.2 µM)	≤ 0.4	C=C(c1ccc(Br)cc1)C(O)(Cn1cncn1)c1ccc(F)cc1 (centres unmarked) [Example 85]	100	80	70	–
25 (≈ 77.3 µM)	0.4 (≈ 1.24 µM)	CC=C(c1ccccc1)C(O)(Cn1cncn1)c1ccc(F)cc1 (centres unmarked) [Example 286]	100	50	20	–
–	–	C[C@@H]1[C@H](O)[C@@H](C)/C=C/C=C/C=C/C=C/C=C/C=C/C=C/[C@H](O[C@@H]2O[C@H](C)[C@@H](O)[C@H](N)[C@@H]2O)C[C@@H]2O[C@](O)(C[C@@H](O)C[C@@H](O)[C@H](O)CC[C@@H](O)C[C@@H](O)CC(=O)O[C@H]1C)C[C@H](O)[C@H]2C(=O)O [Amphotericin B, reference compound]	–	–	–	MIC [1, 6]: 1.4 ± 0.5 µg/mL (≈ 1.52 µM); MIC [2, 7]: 0.33 ± 0.2 µg/mL (≈ 0.357 µM); responders at 1 mg/kg/day ([3]; ATCC11651, 168 h): 100%; responders at 1 mg/kg/day ([3]; ATCC11651, 336 h): 100%; responders at 1 mg/kg/day ([3]; ATCC11651, 504 h): 100%
–	–	C[C@@H]1[C@H](O)[C@@H](C)/C=C/C=C/CC/C=C/C=C/C=C/C=C/C(O[C@H]2O[C@H](C)[C@@H](O)[C@H](N)[C@@H]2O)CC2O[C@](O)(CC(O)C(O)CCC(O)CC(O)CC(O)CC(=O)O[C@H]1C)CC(O)C2C(=O)O (some centres unmarked) [Nystatin, reference compound]	–	–	–	MIC values, A. fumigatus [1]: 3.0 ± 1.0 µg/mL (≈ 3.24 µM); MIC values, C. albicans [2]: 1.3 ± 0 µg/mL (≈ 1.4 µM)
11 ± 5 (≈ 20.7 µM)	≤ 0.1	CC(=O)N1CCN(c2ccc(OCC3COC(Cn4ccnc4)(c4ccc(Cl)cc4Cl)O3)cc2)CC1 (centres unmarked) [Ketoconazole, reference compound]	100	80	50	–
–	–	Clc1ccc(COC(Cn2ccnc2)c2ccc(Cl)cc2Cl)c(Cl)c1 (centres unmarked) [Miconazole, reference compound]	–	–	–	MIC [1, 6]: 1.3 µg/mL (≈ 3.12 µM); MIC [2, 7]: ≤ 0.1 µg/mL
–	–	C=C(c1ccc(F)cc1)C(O)(Cn1cncn1)c1ccc(F)cc1 (single isomer, unassigned) [1277 HCl salt]	–	–	–	MIC values, A. fumigatus [1]: 3.2 µg/mL; MIC values, C. albicans [2]: 0.03 µg/mL
–	–	C=C(c1ccccc1Cl)C(O)(Cn1cncn1)c1ccc(Cl)cc1 (centres unmarked) [34 HCl salt]	–	–	–	MIC values, A. fumigatus [1]: 1.6 µg/mL; MIC values, C. albicans [2]: 0.03 µg/mL
5.7 ± 4 (≈ 44.2 µM)	0.14 ± 0.1 (≈ 1.08 µM)	Nc1nc(=O)[nH]cc1F [5-Fluorocytosine, reference compound]	–	–	–	–
